Numbers after ± are expanded uncertainties.
Assay: xn = mol fraction of the nth substance listed
Conditions: for surface tension liquid-gas: 294.5 K, Pendant drop shape; for speed of sound: 100 kPa, Frequency=3 MHz, Sing-around technique in a fixed-path interferometer; for speed of sound / viscosity / mass density: Liquid; for viscosity / mass density: 102 kPa; for viscosity: Concentric cylinders viscometry; for mass density: Vibrating tube method

CCCCCCCCCCCCCCCCC [heptadecane] + CCCCc1ccccc1
surface tension liquid-gas (x2 = 0.1662): 27.6 ± 0.4 mN/m | surface tension liquid-gas (x2 = 0.3047): 27.7 ± 0.4 mN/m | surface tension liquid-gas (x2 = 0.4587): 28 ± 0.4 mN/m | surface tension liquid-gas (x2 = 0.6419): 28.2 ± 0.4 mN/m | surface tension liquid-gas (x2 = 0.7515): 28.3 ± 0.4 mN/m | surface tension liquid-gas (x2 = 0.8742): 29.2 ± 0.4 mN/m | speed of sound (303.15 K, x2 = 0): 1330.9 ± 1.2 m/s | speed of sound (303.15 K, x2 = 0.1662): 1325.3 ± 0.9 m/s | speed of sound (303.15 K, x2 = 0.3047): 1321.4 ± 1 m/s | speed of sound (303.15 K, x2 = 0.4587): 1316.9 ± 0.9 m/s | speed of sound (303.15 K, x2 = 0.6419): 1312.4 ± 0.9 m/s | speed of sound (303.15 K, x2 = 0.7515): 1311.3 ± 1 m/s | speed of sound (303.15 K, x2 = 0.8742): 1311 ± 0.9 m/s | viscosity (303.15 K, x2 = 0): 3.25 ± 0.02 mPa·s | viscosity (303.15 K, x2 = 0.1662): 2.73 ± 0.01 mPa·s | viscosity (303.15 K, x2 = 0.3047): 2.35 ± 0.01 mPa·s | viscosity (303.15 K, x2 = 0.4587): 1.96 ± 0.01 mPa·s | viscosity (303.15 K, x2 = 0.6419): 1.56 ± 0.01 mPa·s | viscosity (303.15 K, x2 = 0.7515): 1.35 ± 0.01 mPa·s | viscosity (303.15 K, x2 = 0.8742): 1.13 ± 0.01 mPa·s | mass density (303.15 K, x2 = 0): 771.02 ± 0.13 kg/m3 | mass density (303.15 K, x2 = 0.1662): 777.94 ± 0.13 kg/m3 | mass density (303.15 K, x2 = 0.3047): 784.91 ± 0.13 kg/m3 | mass density (303.15 K, x2 = 0.4587): 794.08 ± 0.13 kg/m3 | mass density (303.15 K, x2 = 0.6419): 808.08 ± 0.12 kg/m3 | mass density (303.15 K, x2 = 0.7515): 818.66 ± 0.12 kg/m3 | mass density (303.15 K, x2 = 0.8742): 833.23 ± 0.12 kg/m3 | speed of sound (313.15 K, x2 = 0): 1294.5 ± 1.1 m/s | speed of sound (313.15 K, x2 = 0.1662): 1289 ± 0.9 m/s | speed of sound (313.15 K, x2 = 0.3047): 1285 ± 0.9 m/s | speed of sound (313.15 K, x2 = 0.4587): 1280.3 ± 0.9 m/s | speed of sound (313.15 K, x2 = 0.6419): 1275.9 ± 0.9 m/s | speed of sound (313.15 K, x2 = 0.7515): 1274.1 ± 0.9 m/s | speed of sound (313.15 K, x2 = 0.8742): 1273.6 ± 0.9 m/s | viscosity (313.15 K, x2 = 0): 2.61 ± 0.01 mPa·s | viscosity (313.15 K, x2 = 0.1662): 2.23 ± 0.01 mPa·s | viscosity (313.15 K, x2 = 0.3047): 1.94 ± 0.01 mPa·s | viscosity (313.15 K, x2 = 0.4587): 1.64 ± 0.01 mPa·s | viscosity (313.15 K, x2 = 0.6419): 1.32 ± 0.01 mPa·s | viscosity (313.15 K, x2 = 0.7515): 1.15 ± 0.01 mPa·s | viscosity (313.15 K, x2 = 0.8742): 0.967 ± 0.007 mPa·s | mass density (313.15 K, x2 = 0): 764.16 ± 0.13 kg/m3 | mass density (313.15 K, x2 = 0.1662): 771 ± 0.13 kg/m3 | mass density (313.15 K, x2 = 0.3047): 777.87 ± 0.13 kg/m3 | mass density (313.15 K, x2 = 0.4587): 786.92 ± 0.13 kg/m3 | mass density (313.15 K, x2 = 0.6419): 800.73 ± 0.12 kg/m3 | mass density (313.15 K, x2 = 0.7515): 811.14 ± 0.12 kg/m3 | mass density (313.15 K, x2 = 0.8742): 825.49 ± 0.12 kg/m3 | speed of sound (323.15 K, x2 = 0): 1258.8 ± 0.9 m/s | speed of sound (323.15 K, x2 = 0.1662): 1253.3 ± 0.8 m/s | speed of sound (323.15 K, x2 = 0.3047): 1249.2 ± 0.8 m/s | speed of sound (323.15 K, x2 = 0.4587): 1244.5 ± 0.8 m/s | speed of sound (323.15 K, x2 = 0.6419): 1239.7 ± 0.8 m/s | speed of sound (323.15 K, x2 = 0.7515): 1237.6 ± 0.8 m/s | speed of sound (323.15 K, x2 = 0.8742): 1236.6 ± 0.8 m/s | viscosity (323.15 K, x2 = 0): 2.14 ± 0.01 mPa·s | viscosity (323.15 K, x2 = 0.1662): 1.85 ± 0.01 mPa·s | viscosity (323.15 K, x2 = 0.3047): 1.62 ± 0.01 mPa·s | viscosity (323.15 K, x2 = 0.4587): 1.39 ± 0.01 mPa·s | viscosity (323.15 K, x2 = 0.6419): 1.14 ± 0.01 mPa·s | viscosity (323.15 K, x2 = 0.7515): 1 ± 0.01 mPa·s | viscosity (323.15 K, x2 = 0.8742): 0.844 ± 0.007 mPa·s | mass density (323.15 K, x2 = 0): 757.3 ± 0.14 kg/m3 | mass density (323.15 K, x2 = 0.1662): 764.03 ± 0.13 kg/m3 | mass density (323.15 K, x2 = 0.3047): 770.84 ± 0.13 kg/m3 | mass density (323.15 K, x2 = 0.4587): 779.75 ± 0.13 kg/m3 | mass density (323.15 K, x2 = 0.6419): 793.34 ± 0.13 kg/m3 | mass density (323.15 K, x2 = 0.7515): 803.6 ± 0.12 kg/m3 | mass density (323.15 K, x2 = 0.8742): 817.71 ± 0.12 kg/m3 | speed of sound (333.15 K, x2 = 0): 1223.8 ± 0.8 m/s | speed of sound (333.15 K, x2 = 0.1662): 1218.1 ± 0.8 m/s | speed of sound (333.15 K, x2 = 0.3047): 1214 ± 0.8 m/s | speed of sound (333.15 K, x2 = 0.4587): 1209.1 ± 0.8 m/s

From the NIST ThermoML archive (doi:10.1021/acs.jced.6b00542)
